Experimental data reported in US12129246B1, “Hydroquinazoline derivatives for the treatment of a disease or disorder” (Novartis AG, priority 2023, dated 2024).
Where two headings read alike, the source gives them in different places.

Columns and labels:
human NPR1 = biological target: T1, human NPR1 (Homo sapiens, UniProt P16066); assay: Cellular cGMP production assay, human NPR1 expressing CHO-K1 cells (CisBio HTRF); type: cell-based; conditions: for AC50: cGMP production, 30 min at 37° C., 12-point dose-response from 30 μM; for Human NPR1 Amax (% of ANP): maximum cGMP production as percentage of the maximum cGMP produced with ANP
T1 construct: host or cells: CHO-K1
T1 sequence (P16066 33-1061): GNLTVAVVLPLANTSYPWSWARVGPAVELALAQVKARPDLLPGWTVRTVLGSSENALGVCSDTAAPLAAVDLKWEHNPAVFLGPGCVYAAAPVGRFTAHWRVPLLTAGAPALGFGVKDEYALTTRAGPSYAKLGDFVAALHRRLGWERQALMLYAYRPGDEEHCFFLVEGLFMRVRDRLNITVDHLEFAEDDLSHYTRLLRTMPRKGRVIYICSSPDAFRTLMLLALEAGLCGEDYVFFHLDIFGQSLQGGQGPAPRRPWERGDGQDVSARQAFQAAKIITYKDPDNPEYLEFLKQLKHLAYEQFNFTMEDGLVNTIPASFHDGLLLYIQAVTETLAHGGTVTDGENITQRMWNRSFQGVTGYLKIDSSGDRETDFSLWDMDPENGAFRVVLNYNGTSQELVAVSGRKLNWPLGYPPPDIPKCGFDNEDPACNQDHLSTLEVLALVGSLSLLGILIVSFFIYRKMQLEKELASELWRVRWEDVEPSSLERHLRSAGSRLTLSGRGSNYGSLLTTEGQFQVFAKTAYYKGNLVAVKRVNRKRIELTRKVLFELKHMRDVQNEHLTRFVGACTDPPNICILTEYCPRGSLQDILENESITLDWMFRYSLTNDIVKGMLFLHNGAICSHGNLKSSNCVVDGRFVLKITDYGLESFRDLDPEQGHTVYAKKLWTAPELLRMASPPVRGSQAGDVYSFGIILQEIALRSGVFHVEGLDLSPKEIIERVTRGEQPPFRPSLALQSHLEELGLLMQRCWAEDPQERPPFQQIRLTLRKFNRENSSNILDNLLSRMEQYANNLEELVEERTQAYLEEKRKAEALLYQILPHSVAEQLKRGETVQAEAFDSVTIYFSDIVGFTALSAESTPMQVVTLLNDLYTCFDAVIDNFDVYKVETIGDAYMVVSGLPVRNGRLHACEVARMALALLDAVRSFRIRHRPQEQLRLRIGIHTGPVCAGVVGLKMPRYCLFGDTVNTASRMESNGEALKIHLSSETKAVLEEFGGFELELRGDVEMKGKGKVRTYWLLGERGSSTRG
In short: (§1)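 Cells receive IBMX (1 mM) assay buffer plus test compound over twelve threefold dilutions starting at 30 μM, and cGMP accumulates for 30 min at 37 °C. Lysates are then incubated one hour at room temperature with d2-labelled cGMP and cryptate-labelled antibody before time-resolved fluorescence reading.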

monkey NPR1 = monkey NPR1 (Macaca fascicularis, UniProt A0A7N9DBT9); assay: Cellular cGMP production assay, monkey NPR1 expressing CHO-K1 cells (CisBio HTRF); type: cell-based; conditions: for Monkey NPR1 Amax (% of ANP): maximum cGMP production as percentage of the maximum cGMP produced with ANP
In short: as §1

[1] = cGMP production, monkey NPR1 CHO-K1 cells, 30 min at 37° C., 12-point dose-response from 30 μM, read-out: Monkey NPR1 AC50

Chain of monkey NPR1 (A0A7N9DBT9 entry or part of it): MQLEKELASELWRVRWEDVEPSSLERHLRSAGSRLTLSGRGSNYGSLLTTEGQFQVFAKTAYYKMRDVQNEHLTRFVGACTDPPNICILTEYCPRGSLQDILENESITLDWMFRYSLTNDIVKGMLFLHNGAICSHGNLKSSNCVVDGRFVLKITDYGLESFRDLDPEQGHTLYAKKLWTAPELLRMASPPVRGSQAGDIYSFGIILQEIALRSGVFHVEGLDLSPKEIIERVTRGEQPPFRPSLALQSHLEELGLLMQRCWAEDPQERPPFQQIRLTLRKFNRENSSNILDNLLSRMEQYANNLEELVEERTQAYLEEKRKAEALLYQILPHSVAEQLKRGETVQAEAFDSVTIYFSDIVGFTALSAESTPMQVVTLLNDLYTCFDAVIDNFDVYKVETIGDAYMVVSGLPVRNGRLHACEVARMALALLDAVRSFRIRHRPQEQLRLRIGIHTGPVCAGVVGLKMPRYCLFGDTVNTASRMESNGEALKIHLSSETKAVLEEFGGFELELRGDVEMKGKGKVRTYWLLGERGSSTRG

For `CC[C@H]([C@H]1CC[C@H](C(=O)O)CC1)N(C)c1nc2c(c(N[C@@H](CN3CCC[C@H](CF)C3)c3cnn(C)c3)n1)C[C@H](c1cccc(F)c1)CC2` [Compound 19, (1R,4r)-4-((R)-1-(((R)-4-(((R)-2-((S)-3-(fluoromethyl)piperidin-1-yl)-1-(1-methyl-1H-pyrazol-4-yl)ethyl)amino)-6-(3-fluorophenyl)-5,6,7,8-tetrahydroquinazolin-2-yl)(methyl)amino)propyl)cyclohexane-1-carboxylic acid], the AC50 (human NPR1) was 108 nM, the “Human NPR1 Amax (% of ANP)” value (human NPR1) was 100.504 % of ANP and the AC50 (monkey NPR1; [1]) was 82 nM. The “Monkey NPR1 Amax (% of ANP)” value (monkey NPR1; monkey NPR1 CHO-K1 cells) was 98.174 % of ANP.
For `CC[C@H]([C@H]1CC[C@H](C(=O)O)CC1)N(C)c1nc2c(c(N[C@@H](CN3CCCC(F)(F)CC3)c3cnn(C)c3)n1)C[C@H](c1ccccc1)CC2` [Compound 150, (1R,4r)-4-((R)-1-(((R)-4-(((R)-2-(4,4-difluoroazepan-1-yl)-1-(1-methyl-1H-pyrazol-4-yl)ethyl)amino)-6-phenyl-5,6,7,8-tetrahydroquinazolin-2-yl)(methyl)amino)propyl)cyclohexane-1-carboxylic acid], the AC50 (human NPR1) was 1160 nM, the “Human NPR1 Amax (% of ANP)” value (human NPR1) was 130.487 % of ANP and the AC50 (monkey NPR1; [1]) was 1040 nM. The “Monkey NPR1 Amax (% of ANP)” value (monkey NPR1; monkey NPR1 CHO-K1 cells) was 156.200 % of ANP.
With `CC[C@@H](Nc1nc2c(c(N[C@@H](CN3CCCCC3)c3cnn(C)c3)n1)CN(c1cccc(F)c1)CC2)[C@H]1CC[C@H](C(=O)O)CC1` [Compound 55] the AC50 (human NPR1) was 194 nM, the “Human NPR1 Amax (% of ANP)” value (human NPR1) was 92.712 % of ANP and the AC50 (monkey NPR1; [1]) was 142 nM. The “Monkey NPR1 Amax (% of ANP)” value (monkey NPR1; monkey NPR1 CHO-K1 cells) was 93.391 % of ANP.
With `CC[C@H]([C@H]1CC[C@H](C(=O)O)CC1)N(C)c1nc2c(c(N[C@@H](CN3CCCCC3)c3cnn(CC)c3)n1)C[C@@H](c1cccc(F)c1)CC2` [Compound 116, (1R,4r)-4-((R)-1-(((S)-4-(((R)-1-(1-ethyl-1H-pyrazol-4-yl)-2-(piperidin-1-yl)ethyl)amino)-6-(3-fluorophenyl)-5,6,7,8-tetrahydroquinazolin-2-yl)(methyl)amino)propyl)cyclohexane-1-carboxylic acid] the AC50 (human NPR1) was 477 nM, the “Human NPR1 Amax (% of ANP)” value (human NPR1) was 95.817 % of ANP and the AC50 (monkey NPR1; [1]) was 471 nM. The “Monkey NPR1 Amax (% of ANP)” value (monkey NPR1; monkey NPR1 CHO-K1 cells) was 104.029 % of ANP.
With `CC[C@H]([C@H]1CC[C@H](C(=O)O)CC1)N(C)c1nc2c(c(N[C@@H](CN3C4CCCC3CC(O)C4)c3ccccc3)n1)C[C@H](c1ccccc1)CC2` (stereo partly drawn) [Compound 112, (1R,4r)-4-((1R)-1-(((6R)-4-(((1R)-2-((1R,5S)-3-hydroxy-9-azabicyclo[3.3.1]nonan-9-yl)-1-phenylethyl)amino)-6-phenyl-5,6,7,8-tetrahydroquinazolin-2-yl)(methyl)amino)propyl)cyclohexane-1-carboxylic acid] the AC50 (human NPR1) was 427 nM, the “Human NPR1 Amax (% of ANP)” value (human NPR1) was 90.394 % of ANP and the AC50 (monkey NPR1) was 394 nM. For the same compound, the “Monkey NPR1 Amax (% of ANP)” value (monkey NPR1; monkey NPR1 CHO-K1 cells) was 97.009 % of ANP.
In the case of `CC[C@H]([C@H]1CC[C@H](C(=O)O)CC1)N(C)c1nc2c(c(N[C@@H](CN3C4CCCC3CC(O)C4)c3cnn(CC)c3)n1)C[C@H](c1cccc(F)c1)CC2` (stereo partly drawn) [Compound 79, (1R,4r)-4-((1R)-1-(((6R)-4-(((1R)-1-(1-ethyl-1H-pyrazol-4-yl)-2-((1R,5S)-3-hydroxy-9-azabicyclo[3.3.1]nonan-9-yl)ethyl)amino)-6-(3-fluorophenyl)-5,6,7,8-tetrahydroquinazolin-2-yl)(methyl)amino)propyl)cyclohexane-1-carboxylic acid], the AC50 (human NPR1) is reported as 257 nM, the “Human NPR1 Amax (% of ANP)” value (human NPR1) is reported as 101.351 % of ANP and the AC50 (monkey NPR1) is reported as 327 nM. The “Monkey NPR1 Amax (% of ANP)” value (monkey NPR1; monkey NPR1 CHO-K1 cells) was 104.610 % of ANP.
`CC[C@@H](Nc1nc2c(c(N[C@@H](CN3CC4CCC3C4)c3ccc(F)cc3)n1)C[C@H](c1ccccc1)CC2)[C@H]1CC[C@H](C(=O)O)CC1` (stereo partly drawn) [Compound 86, (1R,4r)-4-((1R)-1-(((6R)-4-(((1R)-2-(2-azabicyclo[2.2.1]heptan-2-yl)-1-(4-fluorophenyl)ethyl)amino)-6-phenyl-5,6,7,8-tetrahydroquinazolin-2-yl)amino)propyl)cyclohexane-1-carboxylic acid] was tested, and the AC50 (human NPR1) was 286 nM, the “Human NPR1 Amax (% of ANP)” value (human NPR1) was 101.050 % of ANP and the AC50 (monkey NPR1; [1]) was 192 nM. For the same compound, the “Monkey NPR1 Amax (% of ANP)” value (monkey NPR1; monkey NPR1 CHO-K1 cells) was 92.318 % of ANP.
With `CC[C@H]([C@H]1CC[C@H](C(=O)O)CC1)N(C)c1nc2c(c(N[C@@H](CN3CCCCC3)c3cnn(CC4CC4)c3)n1)C[C@H](c1ccccc1)CC2` [Compound 147, (1R,4r)-4-((R)-1-(((R)-4-(((R)-1-(1-(cyclopropylmethyl)-1H-pyrazol-4-yl)-2-(piperidin-1-yl)ethyl)amino)-6-phenyl-5,6,7,8-tetrahydroquinazolin-2-yl)(methyl)amino)propyl)cyclohexane-1-carboxylic acid] the AC50 (human NPR1) was 1080 nM, the “Human NPR1 Amax (% of ANP)” value (human NPR1) was 97.612 % of ANP and the AC50 (monkey NPR1; [1]) was 671 nM. For the same compound, the “Monkey NPR1 Amax (% of ANP)” value (monkey NPR1; monkey NPR1 CHO-K1 cells) was 101.537 % of ANP.
In the case of `CC[C@H]([C@H]1CC[C@H](C(=O)O)CC1)N(C)c1nc2c(c(N[C@@H](CN3CCC[C@H](O)C3)c3cnn(CC)c3)n1)C[C@H](c1cccc(F)c1)CC2` [Compound 163, (1R,4r)-4-((R)-1-(((R)-4-(((R)-1-(1-ethyl-1H-pyrazol-4-yl)-2-((S)-3-hydroxypiperidin-1-yl)ethyl)amino)-6-(3-fluorophenyl)-5,6,7,8-tetrahydroquinazolin-2-yl)(methyl)amino)propyl)cyclohexane-1-carboxylic acid], the AC50 (human NPR1) is reported as 1710 nM, the “Human NPR1 Amax (% of ANP)” value (human NPR1) is reported as 103.903 % of ANP and the AC50 (monkey NPR1; [1]) is reported as 1270 nM. For the same compound, the “Monkey NPR1 Amax (% of ANP)” value (monkey NPR1; monkey NPR1 CHO-K1 cells) was 102.145 % of ANP.
In the case of `CC[C@@H](Nc1nc2c(c(N[C@@H](CN3CCCCC3)c3cnc(C)s3)n1)C[C@H](c1ccccc1)CC2)[C@H]1CC[C@H](C(=O)O)CC1` [Compound 119, (1R,4r)-4-((R)-1-(((R)-4-(((S)-1-(2-methylthiazol-5-yl)-2-(piperidin-1-yl)ethyl)amino)-6-phenyl-5,6,7,8-tetrahydroquinazolin-2-yl)amino)propyl)cyclohexane-1-carboxylic acid], the AC50 (human NPR1) is reported as 542 nM, the “Human NPR1 Amax (% of ANP)” value (human NPR1) is reported as 89.681 % of ANP and the AC50 (monkey NPR1; [1]) is reported as 378 nM. The “Monkey NPR1 Amax (% of ANP)” value (monkey NPR1; monkey NPR1 CHO-K1 cells) was 90.965 % of ANP.
In the case of `CC[C@@H](Nc1nc2c(c(N[C@@H](CN3CCCCC3)c3scnc3C)n1)C[C@H](c1ccccc1)CC2)[C@H]1CC[C@H](C(=O)O)CC1` [Compound 114, (1R,4r)-4-((R)-1-(((R)-4-(((S)-1-(4-methylthiazol-5-yl)-2-(piperidin-1-yl)ethyl)amino)-6-phenyl-5,6,7,8-tetrahydroquinazolin-2-yl)amino)propyl)cyclohexane-1-carboxylic acid], the AC50 (human NPR1) is reported as 449 nM, the “Human NPR1 Amax (% of ANP)” value (human NPR1) is reported as 108.428 % of ANP and the AC50 (monkey NPR1; [1]) is reported as 296 nM. The “Monkey NPR1 Amax (% of ANP)” value (monkey NPR1; monkey NPR1 CHO-K1 cells) was 113.348 % of ANP.
For `CC(C)n1cc([C@H](CN2CCCCC2)Nc2nc(N[C@H](C)c3ccc(C(=O)O)cc3)nc3c2C[C@H](c2ccccc2)CC3)cn1` [Compound 171, 4-((R)-1-(((R)-4-(((R)-1-(1-isopropyl-1H-pyrazol-4-yl)-2-(piperidin-1-yl)ethyl)amino)-6-phenyl-5,6,7,8-tetrahydroquinazolin-2-yl)amino)ethyl)benzoic acid], the AC50 (human NPR1) was 2770 nM, the “Human NPR1 Amax (% of ANP)” value (human NPR1) was 96.419 % of ANP and the AC50 (monkey NPR1; [1]) was 2320 nM. The “Monkey NPR1 Amax (% of ANP)” value (monkey NPR1; monkey NPR1 CHO-K1 cells) was 83.963 % of ANP.
`CC[C@H]([C@H]1CC[C@H](C(=O)O)CC1)N(C)c1nc2c(c(N[C@@H](CN3C4CCCC3CC4)c3ccn(C)n3)n1)C[C@H](c1cccc(F)c1)CC2` [Compound 105, (1R,4r)-4-((1R)-1-(((6R)-4-(((1S)-2-(8-azabicyclo[3.2.1]octan-8-yl)-1-(1-methyl-1H-pyrazol-3-yl)ethyl)amino)-6-(3-fluorophenyl)-5,6,7,8-tetrahydroquinazolin-2-yl)(methyl)amino)propyl)cyclohexane-1-carboxylic acid] was tested, and the AC50 (human NPR1) was 396 nM, the “Human NPR1 Amax (% of ANP)” value (human NPR1) was 99.945 % of ANP and the AC50 (monkey NPR1) was 272 nM. The “Monkey NPR1 Amax (% of ANP)” value (monkey NPR1; monkey NPR1 CHO-K1 cells) was 97.086 % of ANP.
